Marks after values point to notes of the source that are not given here.
Key:
Format in all cases: in vivo
Amaranthus retroflexus [1] = assay: greenhouse post-emergence treatment, AMARE; details: scale 0-100
From the text: (§1) The culture containers used were plastic flowerpots containing loamy sand with approximately 3.0% of humus as the substrate. The seeds of the test plants were sown separately for each species.
(§2) For the post-emergence treatment, the test plants were first grown to a height of 3 to 15 cm, depending on the plant habit, and only then treated with the active ingredients which had been suspended or emulsified in water. For this purpose, the test plants were either sown directly and grown in the same containers, or they were first grown separately as seedlings and transplanted into the test containers a few days prior to treatment.
(§3) Depending on the species, the plants were kept at 10-25° C. or 20-35° C. The test period extended over 2 to 4 weeks. During this time, the plants were tended, and their response to the individual treatments was evaluated.
(§4) Evaluation was carried out using a scale from 0 to 100. 100 means no emergence of the plants, or complete destruction of at least the aerial moieties, and 0 means no damage, or normal course of growth. A good herbicidal activity is given at values of at least 70 and a very good herbicidal activity is given at values of at least 85.
(§5) The plants used in the greenhouse experiments belonged to the following species:
(§6) Following representative compounds of formula I according to Table 9 were used in post-emergence treatments in greenhouse experiments (values labeled with * result from pre-emergence experiments): […]

Chenopodium album = assay: greenhouse post-emergence treatment, CHEAL; details: scale 0-100
From the text: as §1, §2, §3, §4, §5, §6

Setaria viridis = assay: greenhouse post-emergence treatment, SETVI; details: scale 0-100
From the text: as §1, §2, §3, §4
(§7) The plants used in the greenhouse experiments belonged to the following species: […]

Echinochloa crus-galli [2] = assay: greenhouse post-emergence treatment, ECHCG; details: scale 0-100
From the text: as §1, §2, §3, §4, §5, §6

Echinochloa crus-galli [3] = assay: greenhouse pre-emergence treatment, ECHCG; details: pre-emergence (value labeled *), scale 0-100
From the text: as §1
(§8) For the pre-emergence treatment, the active ingredients, which had been suspended or emulsified in water, were applied directly after sowing by means of finely distributing nozzles. The containers were irrigated gently to promote germination and growth and subsequently covered with transparent plastic hoods until the plants had rooted. This cover caused uniform germination of the test plants, unless this has been impaired by the active ingredients.
as §3, §4, §7

Abutilon theophrasti = assay: greenhouse post-emergence treatment, ABUTH; details: 1000 g/ha, scale 0-100
From the text: as §1, §2, §3, §4, §7

Amaranthus retroflexus [4] = assay: greenhouse pre-emergence treatment, AMARE; details: pre-emergence (value labeled *), 1000 g/ha; scale 0-100
From the text: as §1, §8, §3, §4, §5, §6

Alopecurus agrestis = assay: greenhouse post-emergence treatment, ALOMY; details: 250 g/ha, scale 0-100
From the text: as §1, §2, §3, §4, §7

SMILES	[%] damage to weed III (AMARE) (Amaranthus retroflexus [1]; 500 g/ha)	[%] damage to weed VI (CHEAL) (Chenopodium album; 500 g/ha)	[%] damage to weed I (ABUTH) (Abutilon theophrasti)	[%] damage to weed VII (ECHCG) (Echinochloa crus-galli [2]; 1000 g/ha)	[%] damage to weed VI (CHEAL) (Chenopodium album; 250 g/ha)	also measured
Cc1c(C(=O)Nc2nnnn2C)cc(F)cc1S(C)(=O)=O [compound 7]	100%	100%	–	–	–	[%] damage to weed XI (SETVI) (Setaria viridis; 500 g/ha): 100%
CCOc1c(Cl)cc(F)c(C(=O)Nc2ncnn2C)c1Cl [compound 17]	100%	100%	–	–	–	[%] damage to weed VII (ECHCG) (Echinochloa crus-galli [2]; 500 g/ha): 98; %; [%] damage to weed VII (ECHCG) (Echinochloa crus-galli [3]; 500 g/ha): 85* %
Cc1c(C(=O)Nc2nnnn2C)cc(F)c(S(C)(=O)=O)c1S(C)(=O)=O [compound 66]	–	–	100%	100%	–	[%] damage to weed III (AMARE) (Amaranthus retroflexus [1]; 1000 g/ha): 100; %; [%] damage to weed III (AMARE) (Amaranthus retroflexus [4]): 100* %
CSc1c(F)cc(C(=O)Nc2nnnn2C)c(C)c1SC [compound 67]	–	–	100%	100%	–	–
COCCn1nnnc1NC(=O)c1c(F)cc(Cl)c(S(C)(=O)=O)c1Cl [compound 76]	–	–	–	–	100%	[%] damage to weed III (AMARE) (Amaranthus retroflexus [1]; 250 g/ha): 100%; [%] damage to weed VII (ECHCG) (Echinochloa crus-galli [2]; 250 g/ha): 100; %; [%] damage to weed VII (ECHCG) (Echinochloa crus-galli [3]; 250 g/ha): 100* %
Cn1nnnc1NC(=O)c1c(F)cc(Cl)c([S+](C)[O-])c1Cl (centres unmarked) [cpd. 6]	–	–	–	–	100%	[%] damage to weed II (ALOMY) (Alopecurus agrestis): 100%; [%] damage to weed XI (SETVI) (Setaria viridis; 250 g/ha): 100%

— US20160108008A1, “Substituted N-(Tetrazol-5-yl)- and N-(Triazol-5-yl)arylcarboxamide Compounds and Their Use as Herbicides” (BASF SE, priority 2013, published 2016)
